US12396994B2, “Compositions for improving physiological function with age” (The Regents Of The University Of Colorado, a body corporate, priority 2017, dated 2025)

Assays:
cells = conditions: reported, trehalose in cells and in mice; cited from earlier work
[1] = test system: human umbilical vein endothelial cells (HUVEC); experiment: Autophagy induction in HUVEC, Cyto-ID fluorescence microplate detection; type: cell-based; conditions: 24 h
Procedure: First, we compiled a library of naturally occurring compounds known to enhance autophagy. Then, we calculated physiologically relevant concentrations of these compounds based on existing data (e.g., previously reported post-prandial plasma concentrations), and we tested each for its ability to induce autophagy at its calculated concentration alone and/or in combination with other candidate compounds. […] In all experiments, autophagy was assessed in human umbilical vein endothelial cells (HUVEC), because of their relevance to vascular physiological measures (in vivo measures, below). Pooled HUVEC cultures obtained from Cascade Biologics were grown in endothelial cell-specific medium (Lonza) at 37° C. in a […] incubator. Third passage cells were seeded into 96-well plates and allowed to reach 70% confluency, at which point candidate treatment compounds or combinations were applied for 24 hours. […] Autophagy was assessed using Enzo Life Sciences Cyto-ID autophagy detection reagents (fluorescence microplate detection of autophagic structures) according to manufacturers instructions on an M5 Spectramax fluorescent plate reader (Molecular Devices). Candidate AEON formulations were designated as AEON-1, -2, etc.
To identify a mixture of food-safe compounds that synergistically activates autophagy (the cellular process of recycling damaged internal components), we screened a library of natural compounds reported to induce autophagy in vitro (in cells). […] Autophagy was assessed via fluorescent microplate assay and confirmed by microscopy in cultured human umbilical vein endothelial cells treated for 24 hours.

[2] = low (physiologically relevant) doses, ingredient alone (trehalose 5 mM)

Structure (SMILES) | Concentration at which the single agent induces autophagy (cells) [mM] | Autophagy induction (relative microplate fluorescence) [1, 2] | Autophagy induction (relative microplate fluorescence) ([1]; established inducers at rapamycin 0.5 μM, trehalose 50 mM (high dose), FIG. 1A)
Cn1c(=O)c2c(ncn2C)n(C)c1=O [caffeine] | 1 to 20 | – | –
C=C1CC[C@H](O)C/C1=C/C=C1\CCC[C@]2(C)[C@@H]([C@H](C)CCCC(C)C)CC[C@@H]12 [cholecalciferol] | – | had no effect on autophagy | –
O=C(O[C@@H]1Cc2c(O)cc(O)cc2O[C@@H]1c1cc(O)c(O)c(O)c1)c1cc(O)c(O)c(O)c1 [epigallocatechin gallate] | – | had no effect on autophagy | –
OC[C@H]1O[C@H](O[C@H]2O[C@H](CO)[C@@H](O)[C@H](O)[C@H]2O)[C@H](O)[C@@H](O)[C@@H]1O [trehalose] | 50 to 100 | had no effect on autophagy | significantly stimulated autophagy
